Data on 14 molecules can be found in paper PMC8952214 (Pharmaceuticals, 2022).

pEC50: −log10 of the molar value. Like-named read-outs stand apart in the source and are kept apart here.

The test system of data set [1] is A/RomaISS/02/08 H1N1 (Brisbane-like) oseltamivir-sensitive virus. The class given is biochemical, Influenza A virus.
Data set [2] shares this test system. As to the kind of experiment: microbe, parasite or virus in culture. In kind it is cell-based, Influenza A virus. To be noted: for pEC50: Influenza A virus, H1N1, MDCK, 48 h, read-out: EC50 A/Roma H1N1.
The nature of a further data set: Cytotoxicity assay. The class given is cell-based, canine. To be noted: dog, MDCK cells (confluent); read-out: CC50 cytotoxic concentration 50%. Here is the method: Madin-Darby canine kidney (MDCK, ATCC, CRL-2936) cells were grown at 37 °C in minimal essential medium (MEM, Invitrogen, Paisley, UK) containing 1.2 g/L NaHCO3, and supplemented with 10% inactivated fetal calf serum (FCS, Invitrogen, Paisley, UK), 2 mM glutamine, nonessential amino acids, penicillin (100 IU/mL), and streptomycin (100 μg/mL).
This procedure was performed as reported elsewhere. Briefly, two-fold serial dilutions of each compound and DMSO or H2O in culture medium were incubated at 37 °C with confluent MDCK cells grown in 96-well tissue culture microplates (Nalge Nunc Europe Ltd., Neerijse, Belgium). After 24 and 48 h, the following parameters were evaluated: cell morphology was examined by light microscopy, cell viability was determined by neutral red staining as already described by us, and cell proliferation was evaluated quantitatively by microscopic counts after dispersion into individual cells with trypsin.

The test system of data set [3] is A/Parma/05/06 H3N2 (Wisconsin-like). As to the kind of experiment: microbe, parasite or virus in culture. The class given is cell-based, Influenza A virus. To be noted: for pEC50: Influenza A virus, H3N2, MDCK, 48 h, read-out: EC50 A/Parma H3N2.
The test system is the same in data set [4]. In kind it is biochemical, Influenza A virus.
The test system of data set [5] is A/RomaISS/02/08 H1N1 (Brisbane-like) oseltamivir-sensitive virus. Particulars: Table 1; turkey erythrocytes; cited from earlier work.
Data set [6] shares this test system. To be noted: MDCK cells, c.p.e. by neutral red, 48 h; read-out: EC50 A/Roma H1N1; cited from earlier work.
The subject of another data set is A/H1N1. Particulars: cited from earlier work.

Take `O=C(COC(=O)c1ccccn1)Nc1ccc2c(c1)CCC2` [Compound 24]: the “HI Titer A/Roma H1N1” value in data set [1] is 0.024 pM.
Turning to `N#Cc1ccc(NC(=O)COC(=O)c2ccccn2)cc1` [Compound 7], the “HI Titer A/Roma H1N1” value in data set [1] is on record as 0.047 pM. Besides, in data set [2], the “SI (selectivity index) = CC50/EC50, A/Roma H1N1” value is 0.39 × 10^2 and the pEC50 was 6.10. In addition, the CC50 in “Cytotoxicity assay” came out at 31.2 µM. In data set [3], the “SI (selectivity index) = CC50/EC50, A/Parma H3N2” value is recorded as 0.44 × 10^2 and the pEC50 is 6.15. In data set [4], the “HI Titer A/Parma H3N2” value is reported as 12,500 pM.
Consider `COc1ccc(S(=O)(=O)NCc2ccc(-n3ccnc3)cc2)cc1F` [Compound 25], for which, in data set [2], the “SI (selectivity index) = CC50/EC50, A/Roma H1N1” value is on record as 0.34 × 10^2 and the pEC50 is 6.05. In the data set “Cytotoxicity assay”, the CC50 was found to be 31.2 µM. Further, the “SI (selectivity index) = CC50/EC50, A/Parma H3N2” value in data set [3] is recorded as 0.39 × 10^2. Also, the “HI Titer A/Parma H3N2” value in data set [4] was 50,000 pM.
With `Cc1ccc(NC(=O)COC(=O)c2ccccn2)cc1F` [Compound 13], in data set [1], the “HI Titer A/Roma H1N1” value worked out at 24 pM. Further, the pEC50 in data set [2] is 6.15. The CC50 in “Cytotoxicity assay” was 31.2 µM. Moreover, the “SI (selectivity index) = CC50/EC50, A/Parma H3N2” value in data set [3] is reported as 0.62 × 10^2. The “HI Titer A/Parma H3N2” value in data set [4] stood at 6 pM.
Take `COc1ccc(C(=O)Nc2cccc(S(=O)(=O)NCc3ccco3)c2)cc1` [Compound 3]: the “HI Titer A/Roma H1N1” value in data set [5] is 0.48 µM.
Take `CC(NS(=O)(=O)c1ccc2c(c1)CCC(=O)N2)c1ccc(-n2ccnc2)cc1` (stereo not drawn) [Compound 27]: the “HI Titer A/Parma H3N2” value in data set [4] is reported as 25,000 pM.
`O=C(CC1(O)C(=O)Nc2ccccc21)c1ccccn1` (stereo not drawn) [Compound 6]: in data set [2], the “SI (selectivity index) = CC50/EC50, A/Roma H1N1” value is recorded as 1.56 × 10^2 and the pEC50 was 6.70. In addition, in the data set “Cytotoxicity assay”, the CC50 amounted to 31.2 µM. For the same molecule, in data set [3], the “SI (selectivity index) = CC50/EC50, A/Parma H3N2” value is 1.04 × 10^2 and the pEC50 was 6.52. In data set [4], the “HI Titer A/Parma H3N2” value turned out to be 480 pM.
As for `Cc1nc(-c2cccc(NC(=O)COC(=O)c3ccc4ccccc4n3)c2)cs1` [Compound 26], the “HI Titer A/Roma H1N1” value in data set [1] was determined as 0.093 pM.
For `Cc1ccc(F)cc1NC(=O)COC(=O)c1ccc2ccccc2n1` [Compound 4], the “HI Titer A/Roma H1N1” value in data set [5] was 0.48 µM. In addition, the pEC50 in data set [6] was 7.21. In the data set “Cytotoxicity assay”, the CC50 came out at 250 µM. For the same molecule, in the data set on A/H1N1, the “activity in hemolysis assays toward A/H1N1” value was “active”. In data set [3], the “SI (selectivity index) = CC50/EC50, A/Parma H3N2” value was 2 × 10^3 and the pEC50 was 6.90. In addition, in data set [4], the “HI Titer A/Parma H3N2” value stood at 480000 pM.
Consider `O=C1CCCN1c1ccc(CNS(=O)(=O)c2ccc(F)cc2)cc1` [Compound 23], for which the “HI Titer A/Roma H1N1” value in data set [1] came to 12 pM.
For the molecule `Cc1ccc(S(=O)(=O)Nc2ccc(-n3ccnc3)c(Cl)c2)cc1` [Compound 28], the “HI Titer A/Roma H1N1” value in data set [1] is on record as 0.093 pM.
On to `Cc1ccc2nc(CNc3ccc(C)c(Cl)c3)cc(=O)n2c1` [Compound 5], for which the “HI Titer A/Roma H1N1” value in data set [5] was 0.48 µM.
`Cc1ccc(S(=O)(=O)NC(C)c2ccc(-n3ccnc3)cc2)cc1C` (stereo not drawn) [Compound 1]: the “HI Titer A/Roma H1N1” value in data set [5] was 0.24 µM. Besides, the results for the pEC50 in data set [6] and in data set [3] were 6.30 and 7.01, respectively. Moreover, the CC50 in “Cytotoxicity assay” is 300 µM. For the same molecule, the “activity in hemolysis assays toward A/H1N1” value in the data set with A/H1N1 is given as “active”. In data set [3], the “SI (selectivity index) = CC50/EC50, A/Parma H3N2” value was 3 × 10^3. The “HI Titer A/Parma H3N2” value in data set [4] was determined as 480000 pM.
As to `Fc1ccc(CNc2ncnc3[nH]cnc23)cc1` [Compound 2], the “HI Titer A/Roma H1N1” value in data set [5] was 0.48 µM.
